Data: ChEMBL document CHEMBL4196001, “Design, semisynthesis, α-glucosidase inhibitory, cytotoxic, and antibacterial activities of p-terphenyl derivatives” (Eur J Med Chem, 2018)
Converted amounts (≈) assume the structure as drawn. Where a name gives a salt, the structure may show the parent alone. The source made the active and inactive calls. No cut-off for these calls is given here.

What was measured:
A549 [1] = assay: Cytotoxicity against human A549 cells by SRB assay; format: functional, cell-based
HeLa [2] = assay: Cytotoxicity against human HeLa cells by SRB assay; format: functional, cell-based
Alpha glucosidase [3] = biological target: T1, Alpha glucosidase (Homo sapiens, UniProt O43451+P10253+P14410+Q2M2H8); assay: Inhibition of human alpha-glucosidase expressed in Saccharomyces cerevisiae using p-nitrophenyl-alpha-D-glucopyranoside as substrate after 15 mins
[4] = Cytotoxicity against human Chang cells by SRB assay; format: cell-based
HepG2 [5] = assay: Cytotoxicity against human HepG2 cells by SRB assay; format: functional, cell-based
HeLa [6] = assay: Cytotoxicity against human HeLa cells at 10 uM by SRB assay; format: functional, cell-based
HepG2 [7] = assay: Cytotoxicity against human HepG2 cells at 10 uM by SRB assay; format: functional, cell-based
[8] = Cytotoxicity against human Chang cells at 10 uM by SRB assay; format: cell-based
Staphylococcus aureus = assay: Antibacterial activity against Staphylococcus aureus after 24 hrs by broth macrodilution method; format: functional
A549 [9] = assay: Cytotoxicity against human A549 cells at 10 uM by SRB assay; format: functional, cell-based
Alpha glucosidase [10] = biological target: T1, Alpha glucosidase; assay: Inhibition of human alpha-glucosidase expressed in Saccharomyces cerevisiae at 10 uM using p-nitrophenyl-alpha-D-glucopyranoside as substrate after 15 mins by two-fold serial dilution method

| Structure (SMILES) | IC50 (A549 [1]) [µM] | IC50 (HeLa [2]) [µM] | IC50 (Alpha glucosidase [3]) [µM] | CC50 [4] [µM] | IC50 (HepG2 [5]) [µM] | Activity (HeLa [6]) | Activity (HepG2 [7]) | Activity [8] | MIC (Staphylococcus aureus) [µM] | Activity (A549 [9]) | inhibition (Alpha glucosidase [10]) |
| --- | --- | --- | --- | --- | --- | --- | --- | --- | --- | --- | --- |
| C=CCOc1ccc(-c2cc(OC)c(-c3ccc(O)cc3)c(OCC=C)c2OC)cc1 | 0.25 | 0.15 | 8.77 | < 0.62 | 0.43 |  |  |  |  |  |  |
| COc1c(Br)c(-c2ccc(O)cc2)c(OC)c(O)c1-c1ccc(O)cc1 |  |  | 7.14 |  |  | inactive | inactive | Non-Toxic | 1.56 (≈ 0.651 µg/mL) | inactive |  |
| CCCOc1ccc(-c2cc(OC)c(-c3ccc(OCCC)cc3)c(OCCC)c2OC)cc1 |  |  |  |  |  | inactive | inactive | Non-Toxic |  | inactive | inactive |
| C#CCOc1ccc(-c2cc(OC)c(-c3ccc(OCC#C)cc3)c(OCC#C)c2OC)cc1 |  |  |  |  |  | inactive | inactive | Non-Toxic |  | inactive | inactive |
| O=C1C=C(c2ccc(O)cc2)C(=O)C(O)=C1c1ccc(O)cc1 |  |  | 22.7 | > 100 |  | inactive | inactive |  |  | inactive |  |
| COc1cc(-c2ccc(OCCBr)cc2)c(OC)c(OCCBr)c1-c1ccc(OCCBr)cc1 |  |  |  |  |  | inactive | inactive | Non-Toxic |  | inactive | inactive |
| COc1cc(-c2ccc(O)cc2)c(OC)c(OC(=O)c2ccco2)c1-c1ccc(O)cc1 |  |  | 35.4 |  |  | inactive | inactive | Non-Toxic |  | inactive |  |
| COc1cc(-c2ccc(O)cc2)c(OC)c(OCCBr)c1-c1ccc(O)cc1 |  |  | 18.8 | 39.1 |  | inactive | inactive |  | 6.25 (≈ 2.78 µg/mL) | inactive |  |
| COc1cc(-c2ccc(O)cc2)c(OC)c(O)c1-c1ccc(OC(c2ccccc2)c2ccccc2)cc1 |  |  |  | 48.3 |  | inactive | inactive |  |  | inactive |  |
| C#CCOc1ccc(-c2cc(OC)c(-c3ccc(O)cc3)c(OCC#C)c2OC)cc1 | 0.79 | 0.68 | 20.1 | 2.31 | 1.23 |  |  |  |  |  |  |
| COc1c(Cl)c(-c2ccc(O)cc2)c(OC)c(O)c1-c1ccc(O)cc1 |  |  | 31.3 |  |  | inactive | inactive | Non-Toxic |  | inactive |  |
| C=CCOc1ccc(-c2cc(OC)c(-c3ccc(OCC=C)cc3)c(OCC=C)c2OC)cc1 |  | 10.1 |  |  |  |  | inactive | Non-Toxic |  | inactive | inactive |
| COc1cc(-c2ccc(O)cc2)c(OC)c(OCCN2CCCC2)c1-c1ccc(O)cc1 |  |  |  |  |  | inactive | inactive |  |  | inactive |  |
| COc1cc(-c2ccc(OCCBr)cc2)c(OC)c(O)c1-c1ccc(O)cc1 |  |  | 16.1 | 95.4 |  | inactive | inactive |  |  | inactive |  |
| CCCOc1ccc(-c2c(OC)cc(-c3ccc(O)cc3)c(OC)c2OCCC)cc1 |  |  | 10.7 | 13.1 |  | inactive | inactive |  |  | inactive |  |
| COc1cc(-c2ccc(O)cc2)c(OC)c(O)c1-c1ccc(OCc2ccccc2)cc1 |  |  | 12.5 | 23.1 |  | inactive | inactive |  | 6.25 (≈ 2.68 µg/mL) | inactive |  |
| CCCOc1ccc(-c2cc(OC)c(-c3ccc(O)cc3)c(OCCC)c2OC)cc1 | 0.26 | 0.18 | 8.69 | 0.87 | 0.49 |  |  |  |  |  |  |
| COc1cc(-c2ccc(O)cc2)c(OC)c(OC(=O)c2ccc(F)cc2)c1-c1ccc(O)cc1 |  |  |  |  |  | inactive | inactive | Non-Toxic |  | inactive |  |
| COc1cc(-c2ccc(OCc3ccc(-c4ccccc4)cc3)cc2)c(OC)c(O)c1-c1ccc(O)cc1 |  |  | 12.2 | 12.7 |  | inactive | inactive |  |  | inactive |  |
| COc1cc(-c2ccc(O)cc2)c(OC)c(O)c1-c1ccc(O)c(CC=C(C)C)c1 |  |  | 25.7 | 0.91 | 2.74 | inactive |  |  |  | inactive |  |
| C=CCOc1c(OC)c(-c2ccc(O)cc2)cc(OC)c1-c1ccc(O)cc1 |  |  | 83.8 |  |  | inactive | inactive | Non-Toxic |  | inactive |  |

| Structure (SMILES) | IC50 (A549 [1]) [µM] | IC50 (HeLa [2]) [µM] | IC50 (Alpha glucosidase [3]) [µM] | CC50 [4] [µM] | IC50 (HepG2 [5]) [µM] | Activity (HeLa [6]) | Activity (HepG2 [7]) | Activity [8] | MIC (Staphylococcus aureus) [µM] | Activity (A549 [9]) | inhibition (Alpha glucosidase [10]) |
| --- | --- | --- | --- | --- | --- | --- | --- | --- | --- | --- | --- |
| C=CCOc1ccc(-c2cc(OC)c(-c3ccc(O)cc3)c(O)c2OC)cc1 |  |  | 26.5 |  |  | inactive | inactive | Non-Toxic |  | inactive |  |
| COc1cc(-c2ccc(OCCBr)cc2)c(OC)c(OCCBr)c1-c1ccc(O)cc1 | 3.06 | 1.58 | 6.67 | 5.05 | 3.85 |  |  |  |  |  |  |
| COc1cc(-c2ccc(OCC(=O)O)cc2)c(OC)c(O)c1-c1ccc(O)cc1 |  |  |  |  |  | inactive | inactive |  |  | inactive |  |
| COc1cc(-c2ccc(O)cc2)c(OC)c(OCc2ccccc2)c1-c1ccc(O)cc1 |  |  | 19.1 | 17.1 |  | inactive | inactive |  | 6.25 (≈ 2.68 µg/mL) | inactive |  |
| COc1cc(-c2ccc(OCCC(C)C)cc2)c(OC)c(O)c1-c1ccc(O)cc1 |  |  | 14.3 |  |  | inactive | inactive | Non-Toxic |  | inactive |  |
| COc1cccc2c1C(=O)c1c(O)c3c(c(O)c1C2=O)C[C@@](O)(C(=O)CO)C[C@@H]3O[C@H]1C[C@H](N)[C@H](O)[C@H](C)O1 [DOXORUBICIN HYDROCHLORIDE] | 0.16 |  |  |  |  |  |  |  |  |  |  |
| COc1cc(-c2ccc(O)cc2)c(OC)c(O)c1-c1ccc(OCCBr)cc1 |  |  | 18 | 54.4 |  | inactive | inactive |  |  | inactive |  |
| CCCOc1ccc(-c2c(OC)cc(-c3ccc(O)cc3)c(OC)c2O)cc1 | 10.3 |  | 12.3 |  |  | inactive | inactive | Non-Toxic |  |  |  |
| COc1cc(-c2ccc(OCC=C(C)C)cc2)c(OC)c(O)c1-c1ccc(OCC=C(C)C)cc1 |  | 2.76 |  | 31.1 | 4.1 |  |  |  |  | inactive | inactive |
| CCCOc1c(OC)c(-c2ccc(O)cc2)cc(OC)c1-c1ccc(O)cc1 |  |  | 19.3 | 14.5 |  | inactive | inactive |  | 6.25 (≈ 2.38 µg/mL) | inactive |  |
| COc1cc(-c2ccc(OCCN3CCCC3)cc2)c(OC)c(O)c1-c1ccc(O)cc1 |  |  |  |  |  | inactive | inactive |  |  | inactive |  |
| COc1cc(-c2ccc(OC(c3ccccc3)c3ccccc3)cc2)c(OC)c(O)c1-c1ccc(O)cc1 |  |  |  | 22.3 |  | inactive | inactive |  |  | inactive |  |
| CCCOc1ccc(-c2cc(OC)c(-c3ccc(OCCC)cc3)c(O)c2OC)cc1 |  |  |  |  |  | inactive | inactive | Non-Toxic |  | inactive | inactive |
| COc1cc(-c2ccc(OCCBr)cc2)c(OC)c(O)c1-c1ccc(OCCBr)cc1 |  |  |  |  |  | inactive | inactive | Non-Toxic |  | inactive | inactive |
| COc1cc(-c2ccc(OCc3ccccc3)cc2)c(OC)c(O)c1-c1ccc(O)cc1 |  |  | 12.5 | 39.1 |  | inactive | inactive |  | 6.25 (≈ 2.68 µg/mL) | inactive |  |
| COc1cc(-c2ccc(OCC=C(C)C)cc2)c(OC)c(O)c1-c1ccc(O)cc1 |  |  | 20.1 | 26.2 |  | inactive | inactive |  | 6.25 (≈ 2.54 µg/mL) | inactive |  |
| COc1cc(-c2ccc(OCC=C(C)C)cc2)c(OC)c(OCC=C(C)C)c1-c1ccc(OCC=C(C)C)cc1 |  |  |  |  |  | inactive | inactive | Non-Toxic |  | inactive | inactive |
| COc1cc(-c2ccc(O)cc2)c(OC)c(OCC=C(C)C)c1-c1ccc(O)cc1 |  |  | 23.4 | 15.9 |  | inactive | inactive |  | 6.25 (≈ 2.54 µg/mL) | inactive |  |
| COc1cc(-c2ccc(O)cc2)c(OC)c(OC(C)=O)c1-c1ccc(O)cc1 |  |  |  |  |  | inactive | inactive | Non-Toxic |  | inactive |  |
| COc1cc(-c2ccc(OCC=C(C)C)cc2)c(OC)c(OCC=C(C)C)c1-c1ccc(O)cc1 | 3.36 | 3.37 | 53.1 | 7.34 | 5.26 |  |  |  |  |  |  |
| C=CCOc1ccc(-c2cc(OC)c(-c3ccc(OCC=C)cc3)c(O)c2OC)cc1 |  |  |  |  |  | inactive | inactive | Non-Toxic |  | inactive | inactive |
